Structure (SMILES) | melting point [°C]
Brc1ccc2c(Br)c3cc(Br)ccc3c(Br)c2c1 | 293 to 296
CC(C)(C)OC(=O)N1CCC(C(=O)NC2=NCCCN2)CC1 | 155 to 160
Clc1ccc2nc(-c3cccnc3)[nH]c2c1 | 244 to 246
CCc1cc(OCc2ccc(-c3ccccc3-c3nnnn3-c3ccc([N+](=O)[O-])cc3)cc2)c2ccccc2n1 | 204 to 206
O=C1NC(=O)C(Cc2ccc(OCCON=Cc3cnc4ccccc4c3)cc2)S1 (stereo not given) | 182 to 184
CCNC(=O)[C@@H]1C[C@]2(NC(=O)N(CCCCl)C2=O)c2cc(F)ccc2O1 | 95 to 97
O=S(=O)(NCc1ccccc1)c1ccc(N(OCC2CCCCC2)c2ncc3[nH]cnc3n2)cc1 | 222 to 224
Cc1cc(-c2ncc(OC3SCC(O)C(O)C3O)cc2F)ccn1 (stereo not given) | 143
O=C(Nc1cccc(S(=O)(=O)NCc2ccccn2)c1)c1cnn2c(C(F)F)cc(-c3ccc(C(F)(F)F)cc3)nc12 | 208
Cc1cc(-c2cc(C(F)(F)F)nc(-n3cnc(-c4ccc(S(N)(=O)=O)cc4)c3)n2)ccc1C(F)(F)F | 287
CCCCOc1c(CNC(=O)OC(C)(C)C)n(CC2CC2)c(=O)c2ccc(O)cc12 | 164 to 166
CCOC(=O)C(Cc1ccc(S(C)=O)cc1)(NC(C)=O)C(=O)OCC (stereo not given) | 135 to 136
O=C(CCCCCNC(=O)C/C=C/c1ccccc1)NO | 127 to 128
CCC1(O)OCc2c1ccnc2OC (stereo not given) | 145
O=C(CS(=O)CCNC(=O)c1ccco1)NCCCOc1cccc(CN2CCCCC2)c1 (stereo not given) | 101 to 102
O=Cc1cn(-c2ccc(F)cc2)c2ccc(Cl)cc12 | 152 to 154
c1nc(SC2CCCCC2)c2cc[nH]c2n1 | 162 to 163
CN(C(=O)CCN1CCC(C(O)(c2ccc(F)cc2)c2ccc(F)cc2)CC1)c1ccccc1 | 73 to 75
Fc1nc(F)c(F)c(N2CCCNCC2)c1F | 58 to 61
Cc1ccc(-c2[nH]c(-c3cccc4ccccc34)nc2C(=O)Nc2nccs2)cc1 | 228 to 229
CCOc1nn(-c2ccc(C(F)(F)F)cn2)cc1CCCOc1cc(CCC(=O)O)n(C2CCCCC2)n1 | 89 to 90

Structure (SMILES) | melting point [°C]
N#Cc1nc2ccc(Oc3ccc(C(F)(F)F)cc3Cl)cc2[nH]1 | 192
O=C(CCNC(=O)OCc1ccccc1)NCCSC(=O)c1ccccc1 | 115 to 118
Cc1cc(NC(=O)C(C)(O)COc2cccc(F)c2)ccc1[N+](=O)[O-] (stereo not given) | 83 to 86
Cc1sc(N)c(C(=O)c2ccc(Cl)cc2)c1CN1CCN(c2ccc(F)cc2)CC1 | 70 to 72
Cc1oc(-c2ccc(C(F)(F)F)cc2)nc1-c1cccc(-c2ccc(OCC(=O)O)cc2)c1 | 178 to 179
CC(C)(C)c1cc(C2=CCOCC2)c(O)c(C(C)(C)C)c1 | 135 to 139
COc1cc(C(=O)N(C(C)C)C2CCCCC2)ccc1Cn1ccc2ncnc-2c1C | 185 to 187
O=C(O)Cn1c(=O)n(CCCCN2CCC(OC(c3ccccc3)c3ccccc3)CC2)c(=O)c2ccccc21 | 153 to 155
CCOC(=O)c1c(C(F)(F)F)nc(C(F)F)c(C#N)c1CC | 38 to 40
CC(C)(C)OC(=O)c1ccc(O)c(Br)c1 | 106 to 108
COCCN(CCOC)c1ccccc1NC(N)=S | 118 to 119
CCCn1ccc(-c2ccc(C(=O)N3Cc4cccn4Cc4ccccc43)cc2)n1 | 159 to 161
CN1CCN(Cc2ccccc2F)C(C2=NCCN2)C1 (stereo not given) | 160 to 162
Cc1oc(-c2ccccc2)nc1CCOc1ccc(CC2SC(=O)NC2=O)c2sccc12 (stereo not given) | 196 to 197
N#CCSC(=O)c1ccco1 | 76 to 78
O=C(NCc1ccncc1)c1cccc2c1OCCO2 | 120 to 121
CC1(C)CNc2nc(-c3ccncc3)cc(=O)n2C1 | 152 to 154
Cc1cc(CN(C)c2cc(-c3ccc(Cl)cc3)nn2C)cc(C)c1OC(C)(C)C(=O)O | 158
CCCC1CCC(C2CCc3c(c(F)c(F)c4cc(OCC)ccc34)O2)CC1 (stereo not given) | 158
COc1cc2c(cc1OC)N(C(=O)c1ccc(-c3ccccc3C(F)(F)F)c(C)c1)Cc1ccc(C(=O)N(C)CC(O)CO)n1C2 (stereo not given) | 184 to 186
Cc1nc2ccc3c(c2nc1C)OC(CN1CC=C(c2c[nH]c4ccccc24)CC1)CO3 (stereo not given) | 153 to 155

Structure (SMILES) | melting point [°C]
[O-][N+](O)=Cc1ccc(Cl)cc1 | 151 to 153
Oc1ccc(Cn2cnc3c(-c4ccco4)ncnc32)cc1 | 231 to 233
O=S(=O)(c1ccc(Cl)cc1)N1CCC[C@@H](Nc2nccc(-c3c(-c4cccc(C=NO)c4)nc4sccn34)n2)C1 | 238 to 240
O=C1CCC(c2ccc(CCN3CCN(c4ncccn4)CC3)cc2)N1 (stereo not given) | 182 to 183
CN1CCN(C2c3ccccc3-c3[nH]c(=O)c(=O)[nH]c32)CC1 (stereo not given) | 263 to 265
c1ccc2c(c1)C[C@H]1CSC(=Nc3cc[nH]n3)N1C2 | 161
Cc1cccc2cc(CN(Cc3cc(C(F)(F)F)cc(C(F)(F)F)c3)c3ncc(N4CCOCC4)cn3)c(N(CC3CC3)CC3CC3)nc12 | 123 to 124
COc1ccc(-c2ccc3c(c2)NC(=O)CC(c2cccc(-n4ccnc4)c2)=N3)cc1 | 207 to 208
CCCn1c(I)c2c3c(cccc31)C1CC(NC(=O)N(CC)CC)CN(C)C1C2 (stereo not given) | 114 to 117
O=C(N[C@H](Cc1cccc(OC(F)(F)C(F)F)c1)[C@@H](O)c1csc(-c2ccccc2)n1)c1cccc2c1C=CCCC2 (racemic) | 137 to 138
CC(C)NCCn1c(-c2ccc(O)cc2)cc2c1CCCC2 | 149 to 150
O=c1ccn2c(c1O)C(c1ccc(Cl)cc1)OCC2 (stereo not given) | 211 to 214
CCOC(=O)Cc1ccc(OCCCN2CCC(C(O)(c3ccc(F)cc3)c3ccc(F)cc3)CC2)c(OC)c1 | 110 to 112
O=C1C(=O)c2ccc(-c3ccccc3C(F)(F)F)cc2C2=C1SCC1(CCNCC1)O2 | 125 to 127
CCN1CCC(c2c[nH]c3ccc(NS(C)(=O)=O)cc23)CC1 | 179 to 181
O=C1C2=C(CCCC2)C(Sc2ccccc2)N1c1ccc(Cl)cc1F (stereo not given) | 86 to 87
COCCO[C@@H]1c2ccc3c(nc(C)n3C)c2O[C@H](c2ccccc2)[C@H]1OC(=O)CN(C)C | 175
O=CN(Cc1cccs1)C1(c2ccc(Cl)cc2)CCC1 | 114 to 119
CCCCCCCN(CCCCCSc1nc(-c2ccccc2)c(-c2ccccc2)[nH]1)c1nc2ccccc2o1 | 58 to 60

Continued, values first:

melting point [°C] | Structure (SMILES)
98 to 99 | CCOC(=O)/C=C/c1cc(OCOC)nn1Cc1ccc(Cl)cc1Cl
170 to 171 | Cc1ccc(/C=C/c2ccccc2[N+](=O)[O-])c([N+](=O)[O-])c1
174 to 176 | O=[N+]([O-])c1ccc2c(c1)N[C@@H]1c3cc([N+](=O)[O-])ccc3C[C@H]21 (relative stereo)
266 to 268 | Cc1c(-c2ccccc2)c(=O)[nH]c2ccccc12
156 to 158 | COc1cccc(Nn2cnc(C)c2-c2ccccc2)c1
175 to 176 | CCOCN1C(C)=C(C(=O)O)C(c2cccc([N+](=O)[O-])c2)C(C(=O)O)=C1C
167 | O=C(c1ccccc1)c1ccc([N+](=O)[O-])c(C(=O)NCc2ccccc2)c1
204 to 207 | COC(=O)c1c(OCc2ccc(-c3ccccc3-c3nnn[nH]3)cc2)cc(C)nc1Cl
177 | COCc1cnc2c(NC(=O)c3c(Cl)cccc3Cl)cccc2c1Cl
74 to 76 | CCNC(=O)n1nc(Oc2c(Cl)cc(C(F)(F)F)cc2Cl)cc1C(C)C
195 to 196 | COc1cc2c(cc1OCc1ccccc1)CCN(C(=O)c1cc(OC)c(OC)c(OC)c1)C2=O
149 to 150 | Cc1cc(-c2cc(CO)c(=O)n(Cc3ccccc3Cl)n2)ccc1F
59 to 60 | Cc1cc(OC(F)(F)C(F)Cl)ccc1NC(=O)CCCC=C(F)F (stereo not given)
126 to 127 | COCc1cnc2c(NC(=O)c3ccccc3C(F)(F)F)cccc2c1-n1ccnc1
86 to 89 | CCOC(=O)c1sc(-c2cccn2C)nc1-c1ccccc1
265 to 266 | O=C(CC1c2ccccc2Sc2ccccc21)Nc1ccc(C(=O)O)cc1
187 to 192 | Cc1nc2c(O[C@@H]3c4ccccc4C[C@H]3O)cccn2c1C=O (relative stereo)

melting point [°C] | Structure (SMILES)
119 to 121 | O=C(Nc1ccccc1)c1cscc1Cl
141 to 144 | Cc1cc(/C=C/C(c2cc(Cl)cc(Cl)c2)C(F)(F)F)ccc1C(=O)NCc1cncnc1 (stereo not given)
108 to 111 | CCc1cn(C2CC(O)C(CCC(O)C(C)Oc3ccc(Cl)cc3Cl)O2)c(=O)[nH]c1=O (mixture of isomers)
164 to 165 | COC(=O)c1cccc(-c2nc(COc3ccc(CON4CC(C=O)=CN4c4ccccc4)cc3OC)c(C)o2)c1
235 to 236 | CC(=O)Nc1ccccc1-c1ccn[nH]c1=O
127 to 128 | CCOC(=O)CNc1ncccc1NC(=O)c1ccc(F)cc1
208 to 209 | O=C(O)COc1cc(Cl)ccc1C(=O)NCc1ccc2c(c1)OCO2
73 to 76 | COc1ccc(-c2ccc(F)cc2F)cc1
189 to 190 | CC(C)n1nc(-c2c(-c3ccccc3)nn3ccc(OCC(=O)N(C)C)cc23)ccc1=O
65 | COCCc1cc([N+](=O)[O-])cc([N+](=O)[O-])c1
129 to 130 | CCOC(=O)C1=C(C)NC(SCc2ccccc2)=NC1c1cccc([N+](=O)[O-])c1 (stereo not given)
76 to 78 | COc1ccc2ccc(O)c(Cl)c2c1
174 to 175 | CCOC(=O)c1cc(=O)nc2n1-c1ccccc1OC2
205 to 206 | COc1ccc(Br)c(OC)c1-c1ccc(C[C@H](NC(=O)c2c(Cl)cccc2Cl)C(=O)O)cc1
114 | CCc1cc(-c2cccc(NC(C)=O)n2)c(OC)cc1OCCN(C)C
123 to 125 | COc1ccccc1CC(=O)Nc1cc(Cl)c(Cl)cc1[N+](=O)[O-]
254 | COc1cc(C(=O)O)ccc1Cc1cccc2ccc(C(=O)NCC(C)C)cc12
